Results published in US5411942A, “Peptide derivative, pharmaceutical preparation containing it and method for treatment of glaucoma” (Carlbiotech Ltd. A/S, priority 1989, dated 1995).
Peptide text beside a SMILES is read from it. * marks the point of attachment. Acm = CC(=O)NC*

Legend:
rats [1] = test: Intravenous tolerance in rats; assay type: in vivo; details: doses as high as 40 mg/kg intravenously
blood pressure = details: e.g. at 10 mg/kg in rats
[2] = tested on: antibodies in serum samples; details: serum of rats treated subcutaneously for one month in large doses
rats [3] = test: Subcutaneous toxicity in rats, also prolonged for a month; assay type: in vivo; details: subcutaneous administration of similar doses in rats, also prolonged treatment for a month
anterior sclera = details: Ussing chamber, glutathione bicarbonate Ringer's solution
rabbit's eye = details: 5% solution as eye drops in rabbit's eye, even after treatment over a month
mice = test: Intravenous tolerance in mice; assay type: in vivo; details: doses as high as 40 mg/kg intravenously
Salmonella strains = details: Ames test on Salmonella strains
[4] = tested on: stress induced ocular hypertensive rabbits; test: Stress induced ocular hypertension in the rabbit eye, treatment started after pressure elevation; assay type: in vivo; details: for IOP lowering efficiency in relation to Timolol / Initial Pressure (Unstressed) / Pressure after 5 days of stress (Treatment starts) / Pressure after 10 days of stress (5 days of treatment) / Change in IOP: Example 6; for Initial Pressure (Unstressed): baseline before stress; for Pressure after 5 days of stress (Treatment starts) / Pressure after 5 days: before treatment; for Pressure after 10 days of stress (5 days of treatment): stress continued; for Change in IOP: day 10 versus day 5; for Pressure after 5 days / Initial Pressure / Pressure after 10 days (5 days of treatment): Example 8; for Pressure after 5 days: after 5 day stress induction; for Initial Pressure: baseline; for Pressure after 10 days (5 days of treatment): 2 drops four times for 5 days
Procedure: (§1) The main feature of this clinical model is a stress induced elevation of the intraocular pressure in the rabbit eye above the initial and normal value. The stress is exerted, i.e. applied, in the form of measuring the pressure (at 12 hour intervals) with the help of a SHIOTZ-Tonometer, which is loaded with 7.5 grams.
(§2) Adult rabbits of random breed and sex in groups of n=3-10 were employed. Weight 2,5-3,0 kg. The peptide was a freeze-dried powder, and was applied to the rabbit eye as a powder, or as drops, dissolved in 0.9% NaCl aqueous solution. Positive control was the commercial glaucoma drugs, either timololor pilocarpin, and negative control was 0.9% NaCl solution in water.
on stress induced ocular hypertensive rabbits. […] The amount of peptide per treatment was thus 3.75 mg which corresponds on a molar basis to the amount of Timolol used per treatment.
The local treatment was started on day 5 of glaucoma induction (i.e. afer 10 stress units), and the stress, that is the trauma, was continued during the treatment with the peptide.
A 1% and 0.1% solution of the peptide in 0.9% NaCl aqueous solution was applied four times (2 drops each time) for 5 days after an initial 5 day stress induction period. (Stress units at 12 hour intervals).

[5] = tested on: experimentally hypertensive rabbit eye; test: Antagonizing effect on stress induced intraocular pressure in the rabbit eye, treatment simultaneous with stress; assay type: in vivo; details: for Change in pressure / Pressure after 5 1/5 / Initial Pressure: Example 9; for Change in pressure / Pressure after 5 1/5: 11 stress units, peptides as drops of 0.5% solution 3× daily; for Initial Pressure: baseline
Procedure: as §1, §2
20 mg peptide was dissolved in 0.6 ml 0.9% NaCl aqueous solution and applied in aliquots of 60 μl four times daily over a period of 2.5 days.
The treatment was started at the beginning of the experiment simultaneously with stress units. Five stress units were applied at 12 hour intervals.
Stress units were applied at 12 hour intervals over a period of 51/2 days, i.e. 11 stress units. The peptides were applied 3× daily over this period as drops of a 0.5% solution in 0.9% NaCl in aqueous solutions.
Stress units were applied at 12 hour intervals over a period of 51/2 days, i.e. 11 stress units. The peptides were applied 3× daily over this period as drops of a 1.0% solution in 0.9% NaCl in aqueous solution.

[6] = tested on: water load induced hypertension in the rabbit eye; test: Water load model, intraocular pressure in rabbits' eyes; assay type: in vivo; details: single dose; for AUC: area under Δ IOP-time curve
Procedure: The findings of intraocular pressure lowering effects in the stress induced rabbit model has been confirmed and further studied by using another elevated eye pressure rabbit model. In this model, the widely applied water load model, elevation of the intraocular pressure is achieved by injecting a large volume of sterile water intraperitoneally into the rabbits. Following onset of eye drop treatment in one eye while the other eye is treated with saline placebo, the intraocular pressure of both eyes is then measured at various intervals and the pressure difference between the eyes is taken as an expression of the pharmaceutical effect. In these experiments, pilocarpine, a well-known pressure lowering cholinergic agent, was used as positive control.
The studies utilized a "water load" animal model.
Thirty minutes before drug solution installation, rabbits were injected intraperitonally with 60 ml/kg of sterile distilled water for injection (30° C.) spiked with an antibiotic mixture (Sigma P9032).
At time zero, 50 μl of a drug solution was instilled to one eye and an equal volume of a saline solution was instilled to the other eye. The intraocular pressure in each eye was monitored at the time points indicated. The change in intraocular pressure (IOP) at each time point is computed by subtracting the IOP in the dosed eye from that in the undosed eye.
From these plots was assessed the maximal IOP effect, the time to reach this and the time for returning to a zero or insignificant level of intraocular pressure lowering effect. These figures may be taken as a measure of potency and duration of effect. As a measure of the full pharmaceutical effect at various dose levels was taken a sum figure of the area under the curves (AUC).
A 0.5% solution of the peptides or 2.6% pilocarpine nitrate (positive control) in 0.9% NaCl aqueous solution was applied in one eye and 0.9% Nacl, also acting as negative control in the other eye, an IOP was measured in both eyes for 3 hours.
A 0.25%, 0.5% of 1.0% solution of the peptides in 0.9% aqueous NaCl solution was applied in one eye and 0.9% NaCl to the other eye and IOP was measured in both eyes for 3 hours.

[7] = tested on: freshly excised bulbar conjunctiva; details: Ussing chamber, glutathione bicarbonate Ringer's solution
[8] = tested on: cultured bovine trabecular meshwork cells; test: Cultured bovine trabecular meshwork cells incubated with peptide; assay type: cell-based
Text: The mechanism, or mechanisms, by way of which the peptides according to the invention work, is so far not known in detail and may be of hitherto unknown types or related to some known mechanisms. With the apparent lack of β-blocking effects, other known mechanisms could be effects on the enzyme carbo-anhydrase or effects on aqueous humour outflow. Some indications of mechanisms of the latter type have been found in in vitro studies. […] The significant decrease in glycosamine uptake with normal synthesis of glycoproteins like fibronectin is taken to indicate an influence on the formation of glycosamino glycans, an important parameter in the regulation of outflow of aqueous humour from the eye.

[9] = Example 11, 2.6% pilocarpine nitrate
[10] = 0.5% peptide, 3.75 mg powder 4× daily
[11] = cell cultures incubated with the peptide

CC(=O)NCSC[C@H](NC(=O)[C@@H](NC(=O)CNC(=O)[C@H](CC(C)C)NC(=O)[C@@H](N)CC(N)=O)C(C)C)C(N)=O [AsnLeuGlyValCys(Acm)NH2, H-Asn-Leu-Gly-Val-Cys(Acm)-NH2] (H-NLGVC(Acm)-NH2)
tolerance of intravenous doses (rats [1]): easily tolerated
effect on blood pressure (blood pressure): no effect on blood pressure
detection of antibodies by ELISA [2]: not been possible to detect such antibodies
toxic or adverse effects (rats [3]): no toxic or adverse effects
penetration through tissue (anterior sclera): found to penetrate scleral tissue
anaesthetic effects (rabbit's eye): neither anaesthetic effects
irritant effects (rabbit's eye): nor irritant effects
tolerance of intravenous doses (mice): easily tolerated
mutagenicity classification (Salmonella strains): non-mutagenic

CC(C)(C)NC[C@H](O)COc1nsnc1N1CCOCC1 [Timolol, reference compound]
IOP lowering efficiency in relation to Timolol ([4]; 0.25% Timolol): 100%
Initial Pressure (Unstressed) ([4]; 0.25% Timolol group): 19.0 mm Hg
Pressure after 5 days of stress (Treatment starts) ([4]; 0.25% Timolol group): 30.0 mm Hg
Pressure after 10 days of stress (5 days of treatment) ([4]; 0.25% Timolol): 19.5 mm Hg
Change in IOP ([4]; 0.25% Timolol): -10.5 mm Hg
Change in pressure [5]: +1 mm Hg
Pressure after 5 1/5 [5]: 16 mm Hg
Initial Pressure [5]: 15 mm Hg

CC[C@@H]1C(=O)OC[C@@H]1Cc1cncn1C [pilocarpine nitrate, reference compound]
Duration of effect [6, 9]: 120 min
Max. response Δ IOP [6, 9]: -5.0 mm Hg
Time to max. response [6, 9]: 30 min

H-Asn-Gly-Gly-Val-Cys(Acm)-NH2 (H-NGGVC(Acm)-NH2; also: acetate salt) [AsnGlyGlyValCys(Acm)NH2]
penetration through tissue [7]: found to penetrate both tissues
IOP lowering efficiency in relation to Timolol ([4]; 0.5% peptide): 150%
Pressure after 5 days of stress (Treatment starts) ([4]; 0.5% peptide group): 32.0 mm Hg
Pressure after 10 days of stress (5 days of treatment) [4, 10]: 16.5 mm Hg
Initial Pressure (Unstressed) [4, 10]: 19.0 mm Hg
Change in IOP ([4]; 0.5% peptide): -15.5 mm Hg
Pressure after 5 days ([4]; 0.1% peptide group): 28 mm Hg
Initial Pressure ([4]; 0.1% peptide group): 18 mm Hg
Pressure after 10 days (5 days of treatment) ([4]; 0.1% solution): 15.5 mm Hg
Pressure after 5 days ([4]; 1% peptide group): 32 mm Hg
Initial Pressure ([4]; 1% peptide group): 21 mm Hg
Pressure after 10 days (5 days of treatment) ([4]; 1% solution): 18 mm Hg
Change in IOP After 21/2 days, Absolute ([5]; Example 7, 20 mg in 0.6 ml saline, 60 μl four times daily for 2.5 days, five stress units): -4.7 mm/Hg
Change in IOP After 21/2 days, Relative to Control ([5]; Example 7, relative to 0.9% saline): -9.2 mm/Hg
Change in pressure [5]: 0 mm Hg
Pressure after 5 1/5 [5]: 14 mm Hg
Initial Pressure [5]: 14 mm Hg
cell growth and ultrastructure [8, 11]: normal growth and ultrastructure
effect on collagen and fibronectin synthesis [8, 11]: no effect
uptake of glycosamines ([8]; cultured bovine trabecular meshwork cells): marked and significant decrease
penetration through tissue (anterior sclera): found to penetrate both tissues
Duration of effect ([6]; Example 11, 0.5% solution): 120 min
Time to max. response ([6]; Example 11, 0.5% solution): 30 min
Max. response Δ IOP ([6]; Example 11, 0.5% solution, IOP followed 3 hours): -5.0 mm Hg
Duration of effect ([6]; Example 12, Conc. 0.25%): 80 min
Max resp. Δ IOP ([6]; Example 12, Conc. 0.25%): -2.0 mm Hg
Time to max. resp. ([6]; Example 12, Conc. 0.25%): 30 min
AUC ([6]; Example 12, Conc. 0.25%): 160 mm Hg×min
Duration of effect ([6]; Example 12, Conc. 0.5%): 120 min
Max resp. Δ IOP ([6]; Example 12, Conc. 0.5%): -5.0 mm Hg
Time to max. resp. ([6]; Example 12, Conc. 0.5%): 30 min
AUC ([6]; Example 12, Conc. 0.5%): 360 mm Hg×min
Duration of effect ([6]; Example 12, Conc. 1.0%): 120 min
Max resp. Δ IOP ([6]; Example 12, Conc. 1.0%): -4.0 mm Hg
Time to max. resp. ([6]; Example 12, Conc. 1.0%): 30 min
AUC ([6]; Example 12, Conc. 1.0%): 410 mm Hg×min
